This note sets out measurements from patent US8765779B2, “Tricyclic derivatives and their pharmaceutical use and compositions” (Cephalon, Inc., priority 2009, dated 2014).

Counter-ions that a name gives are not always drawn. Like-named read-outs stand apart in the source and are kept apart here.

The test has as its target T1, human 5-HT6 receptor (Homo sapiens, UniProt P50406).
T1 construct: host or cells: CHO-K1 cells, stably transfected; membranes prepared in house
Description: Human 5-HT6 Receptor Binding Assay ([3H]LSD displacement, scintillation beads). Particulars: membranes of CHO-K1 cells with recombinant human 5-HT6, 4 nM [3H]LSD, read-out: h5-HT6 (Ki).

T1 sequence (P50406 whole entry): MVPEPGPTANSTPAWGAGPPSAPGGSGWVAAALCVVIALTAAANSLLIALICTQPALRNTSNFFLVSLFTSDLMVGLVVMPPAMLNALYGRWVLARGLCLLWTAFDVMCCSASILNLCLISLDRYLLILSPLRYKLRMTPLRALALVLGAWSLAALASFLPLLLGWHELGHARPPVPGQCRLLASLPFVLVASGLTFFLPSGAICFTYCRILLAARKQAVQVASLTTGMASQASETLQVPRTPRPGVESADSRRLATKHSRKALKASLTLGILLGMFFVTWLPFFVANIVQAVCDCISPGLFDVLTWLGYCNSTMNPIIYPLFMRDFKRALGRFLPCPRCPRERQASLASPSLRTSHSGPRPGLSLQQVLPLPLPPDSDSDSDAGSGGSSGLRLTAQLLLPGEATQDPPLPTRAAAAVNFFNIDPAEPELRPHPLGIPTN

Usually Ki stands for the dissociation constant of the complex between target and ligand, obtained from inhibition or displacement. Regarding `CC1(C)NCCc2c1oc1cc(S(=O)(=O)c3cccc(F)c3)ccc21` [Example 1, 7-[(3-Fluorophenyl)sulfonyl]-1,1-dimethyl-1,2,3,4-tetrahydro[1]benzofuro[2,3-c]pyridine], the Ki (Table 1, class symbols) is below 500 nM and the Ki (specific data) was 1.5 nM.

With `CC(C)Oc1cccc(S(=O)(=O)c2ccc3c(c2)OC2CNCCC32)c1` (stereo not shown) [Example 136], where the note is “Table 1, class symbols”, the Ki is below 500 nM.

Turning to `O=S(=O)(c1cccc2c1OC1CNCCC21)c1cccc2ccccc12` (stereo not shown) [Example 184], under “Table 1, class symbols”, the Ki is below 500 nM.

Take `CC12CCNCC1Oc1ccc(OS(=O)(=O)c3cccc4ccccc34)cc12` (stereo not shown) [Example 768]: the Ki (Table 1, class symbols) was 500 to 1000 nM.

Regarding `CC(C)Oc1cccc(S(=O)(=O)c2ccc3c(c2)OC2CNCCC32C)c1` (racemic) [Example 12, 4a-methyl-7-{[3-(propan-2-yloxy)phenyl]sulfonyl}-1,2,3,4,4a,9a-hexahydro[1]benzofuro[2,3-c]pyridine], the inhibitory constant (Ki) (Table 1, class symbols) was below 500 nM.

For `Cc1cccc(S(=O)(=O)Oc2ccc3c(c2)OC2CNCCC32)c1` (stereo not shown) [Example 641], the Ki (Table 1, class symbols) was below 500 nM.

For `Cc1ccc(S(=O)(=O)c2ccc3c4c(oc3c2)CNCC4)cc1` [Example 204], where the note is “Table 1, class symbols”, the inhibition constant Ki was below 500 nM.

Consider `CC1(C)NCCc2c1oc1cc(S(=O)(=O)c3cccc(OC(F)(F)F)c3)ccc21` [Example 291, 1,1-dimethyl-7-{[3-(trifluoromethoxy)phenyl]sulfo-nyl}-1,2,3,4-tetrahydro[1]benzofuro[2,3-c]pyridine], for which the Ki (Table 1, class symbols) was below 500 nM.

With `O=S(=O)(c1ccc(Cl)c(Cl)c1)c1ccc2oc3c(c2c1)CCNC3` [Example 261, 6-[(3,4-dichlorophenyl)sulfonyl]-1,2,3,4-tetrahydro[1]benzofuro[2,3-c]pyridine], the Ki (Table 1, class symbols) is below 500 nM.

Consider `O=S(=O)(c1ccc2c(c1)OC1CNCCC21)c1cccnc1F` (stereo not shown) [Example 382], for which, where the note is “Table 1, class symbols”, the Ki is below 500 nM.

Regarding `O=S(=O)(c1cc(F)cc(F)c1)c1ccc2c(c1)OC1CNCCC21` (stereo not shown) [Example 131], the Ki (Table 1, class symbols) was below 500 nM.

Take `O=S(=O)(c1ccc(F)c(Cl)c1)c1ccc2c(c1)OC1CNCCC21` (stereo not shown) [Example 127]: the Ki (Table 1, class symbols) is below 500 nM.

Consider `[O-][S+](c1cncc(F)c1)c1ccc2c(c1)OC1CNCCC21` (stereo not shown) [Example 396], for which the inhibitory constant (Ki) (Table 1, class symbols) was above 1000 nM.

Turning to `CC(C)Oc1cc(OC(CO)CCl)cc(S(=O)(=O)c2ccc3c(c2)OC2CNCCC32)c1` (stereo not shown) [Example 589], the inhibition constant (Ki) (Table 1, class symbols) was below 500 nM.

Turning to `O=S(=O)(c1ccc2c(c1)OC1CNCCC21)c1ccccc1OCC(F)(F)F` (stereo not shown) [Example 421], the Ki (Table 1, class symbols) was below 500 nM.

For the compound `O=S(=O)(c1cccc(Cl)c1)c1ccc2c(c1)C1CCNCC1O2` (stereo not shown) [Example 294, 6-[(3-Chlorophenyl)sulfonyl]-1,2,3,4,4a,9a-hexahydro[1]benzofuro[2,3-c]pyridine trifluoroacetic acid salt], the Ki (Table 1, class symbols) is below 500 nM.

Consider `CCCCOc1cccc(S(=O)(=O)c2ccc3c(c2)OC2CNCCC32)c1` (stereo not shown) [Example 554], for which, under “Table 1, class symbols”, the inhibitory constant (Ki) was below 500 nM.

With `O=S(=O)(c1cccc(F)c1)c1ccc2oc3c(c2c1)CCN1CCCCC31` (stereo not shown) [Example 618], the Ki (Table 1, class symbols) is above 1000 nM.

With `O=S(=O)(Cc1ccccc1Cl)Oc1ccc2c(c1)C1CCNCC1O2` (stereo not shown) [Example 754], the Ki (Table 1, class symbols) is above 1000 nM.

On to `COCCCOc1cc(OC(C)C)cc(S(=O)(=O)c2ccc3c(c2)OC2CNCCC32)c1` (stereo not shown) [Example 588], for which the Ki (Table 1, class symbols) is below 500 nM.

With `O=S(=O)(c1cccc(F)c1)c1ccc2c3c(oc2c1)C(CC(F)(F)F)NCC3` (stereo not shown) [Example 507], under “Table 1, class symbols”, the inhibition constant (Ki) was below 500 nM.

Regarding `O=S(=O)(c1ccc2c(c1)OC1CNCCC21)c1cccnc1F` (stereo not shown) [Example 398], the inhibition constant (Ki) (Table 1, class symbols) was below 500 nM.

Turning to `O=S(=O)(c1ccc2c(c1)OC1CNCCC21)c1ccccc1-c1ccccc1` (stereo not shown) [Example 153], the Ki (Table 1, class symbols) is below 500 nM.

On to `O=S(=O)(Nc1ccc2c(c1)C1CCNCC1O2)c1c(Cl)nc2sccn12` (stereo not shown) [Example 818], for which the Ki (Table 1, class symbols) is below 500 nM.

For the compound `O=S(=O)(c1cccc(C(F)(F)F)c1)c1ccc2c(c1)OC1CNCCC21` (stereo not shown) [Example 167], the Ki (Table 1, class symbols) is below 500 nM.

`O=S(=O)(c1ccc(Cl)c(Cl)c1)c1ccc2c(c1)C1CCNCC1O2` (stereo not shown) [Example 172]: the Ki (Table 1, class symbols) is below 500 nM.

As to `CC(C)Oc1cccc(S(=O)(=O)c2ccc3c4c(oc3c2)C2(CCC2)NCC4)c1` [Example 26, 7-{[3-(propan-2-yloxy)phenyl]sulfonyl}-3,4-dihydro-2H-spiro[1-benzofuro[2,3-c]pyridine-1,1′-cyclobutane]], the Ki (Table 1, class symbols) was below 500 nM.

In the case of `O=S(=O)(c1cccc(F)c1)c1ccc2c3c(oc2c1)C1(CCCC1)NCC3` [Example 28, 7-[(3-fluorophenyl)sulfonyl]-3,4-dihydro-2H-spiro[1-benzofuro[2,3-c]pyridine-1,1′-cyclopentane]], the Ki (Table 1, class symbols) was below 500 nM.

Consider `CC12CCN(C3CCC3)CC1Oc1ccc(OS(=O)(=O)Cc3ccccc3)cc12` (stereo not shown) [Example 805], for which the inhibition constant (Ki) (Table 1, class symbols) was above 1000 nM.

Turning to `CC12CCNCC1Oc1ccc(OS(=O)(=O)Cc3ccc(Cl)cc3)cc12` (stereo not shown) [Example 789], the Ki (Table 1, class symbols) is above 1000 nM.

For `O=S(=O)(c1ccccc1)c1ccc2c3c(oc2c1)C1(CCCOC1)NCC3` (single isomer, unassigned) [Example 543, 7-(Phenylsulfonyl)-3,4,5′,6′-tetrahydro-2H,4′H-spiro[1-benzofuro[2,3-c]pyridine-1,3′-pyran]hydrochloride], where the note is “Table 1, class symbols”, the inhibition constant Ki was below 500 nM.

`COc1ccc(S(=O)(=O)c2ccc3c(c2)OC2CNCCC32)cc1F` (stereo not shown) [Example 129]: the Ki (Table 1, class symbols) is 500 to 1000 nM.

For `O=S(=O)(c1cccc(OCC2CCOCC2)c1)c1ccc2c(c1)OC1CNCCC21` (stereo not shown) [Example 581, 7-{[3-(tetrahydro-2H-pyran-4-ylmethoxy)phenyl]sulfonyl}-1,2,3,4,4a,9a-hexahydro[1]benzofuro[2,3-c]pyridine], where the note is “Table 1, class symbols”, the Ki is below 500 nM.

As to `O=S(=O)(Nc1ccc(Cl)c(Cl)c1)c1ccc2c(c1)C1CCNCC1O2` (stereo not shown) [Example 852], the Ki (Table 1, class symbols) was above 1000 nM.

With `O=S(=O)(Cc1cccc(Cl)c1)Oc1ccc2c(c1)C1CCNCC1O2` (stereo not shown) [Example 752], the Ki (Table 1, class symbols) was above 1000 nM.

Turning to `O=S(=O)(Oc1ccc2c(c1)C1CCNCC1O2)c1ccccc1Cl` (stereo not shown) [Example 711], under “Table 1, class symbols”, the inhibitory constant (Ki) is below 500 nM.

In the case of `COc1ccc(S(=O)(=O)c2ccc3c4c(oc3c2)C(C)NCC4)cc1F` (stereo not shown) [Example 236], where the note is “Table 1, class symbols”, the Ki is below 500 nM.

On to `O=S(=O)(Oc1ccc2c(c1)OC1CNCCC21)c1ccc(N2CCOCC2)nc1` (stereo not shown) [Example 683], for which, where the note is “Table 1, class symbols”, the Ki fell in the range of 500 to 1000 nM.

Take `O=S(=O)(c1cc[n+]([O-])cc1)c1ccc2c(c1)OC1CNCCC21` (stereo not shown) [Example 329]: the inhibition constant Ki (Table 1, class symbols) is above 1000 nM.

As for `O=S(=O)(Oc1ccc2c(c1)C1CCNCC1O2)c1cccc(F)c1` (stereo not shown) [Example 701], the Ki (Table 1, class symbols) is above 1000 nM.

As for `O=S(=O)(Oc1ccc2c(c1)OC1CNCCC21)c1cccc(F)c1` (stereo not shown) [Example 643], where the note is “Table 1, class symbols”, the Ki was below 500 nM.

As for `O=S(=O)(NC1CCCCC1)c1ccc2c(c1)C1CCNCC1O2` (stereo not shown) [Example 849, N-cyclohexy1-1,2,3,4,4a,9a-hexahydro[1]benzofuro[2,3-c]pyridine-6-sulfonamide], the Ki (Table 1, class symbols) was above 1000 nM.

As for `CC(C)S(=O)(=O)c1ccc2c3c(oc2c1)CNCC3` [Example 234], the inhibition constant (Ki) (Table 1, class symbols) was above 1000 nM.

Take `CC1(C)NCCc2c1oc1cc(S(=O)(=O)c3cccc4c3OC(F)(F)O4)ccc21` [Example 465]: for the setting “Table 1, class symbols”, the inhibition constant (Ki) was below 500 nM.

Consider `O=S(=O)(Oc1ccc2c(c1)OC1CNCCC21)c1c(Cl)nc2sccn12` (stereo not shown) [Example 792], for which the Ki (Table 1, class symbols) is below 500 nM.

In the case of `COc1cc(OC2CCCC2)cc(S(=O)(=O)c2ccc3c(c2)OC2CNCCC32)c1` (stereo not shown) [Example 586], the inhibition constant Ki (Table 1, class symbols) is below 500 nM.

Turning to `Cc1ccc(S(=O)(=O)Oc2ccc3c(c2)OC2CNCCC32)cc1C` (stereo not shown) [Example 649], where the note is “Table 1, class symbols”, the Ki is below 500 nM.

In the case of `O=S(=O)(c1ccc2c(c1)C1CCNCC1O2)c1ccc2ccccc2c1` (stereo not shown) [Example 175], the inhibition constant (Ki) (Table 1, class symbols) was below 500 nM.

In the case of `O=S(=O)(c1ccccc1)c1ccc2c3c(oc2c1)[C@]1(CCOC1)NCC3` (single isomer, unassigned) [Example 110], the Ki (Table 1, class symbols) is below 500 nM.

In the case of `CC1(C)CNC2(CCOC2)c2oc3cc(S(=O)(=O)c4ccccc4)ccc3c21` (stereo not shown) [Example 295], the Ki (Table 1, class symbols) was below 500 nM.

As for `O=S(=O)(c1ccccc1)c1ccc2c3c(oc2c1)CN(CCO)CC3` [Example 592, 2-[7-(Phenylsulfonyl)-3,4-dihydro[1]benzofuro[2,3-c]pyridin-2(1H)-yl]ethanol], the inhibition constant Ki (Table 1, class symbols) is below 500 nM.

As for `Cc1ccc(C)c(S(=O)(=O)Oc2ccc3c(c2)OC2CNCCC32)c1` (stereo not shown) [Example 647], for the setting “Table 1, class symbols”, the Ki was below 500 nM.

Consider `O=S(=O)(c1ccc2c(c1)OC1CNCCC21)c1cccnc1OCC(F)(F)F` (stereo not shown) [Example 395], for which, where the note is “Table 1, class symbols”, the inhibitory constant (Ki) is below 500 nM.

Consider `CC1(C)CNC2(CCOC2)c2oc3cc(S(=O)(=O)c4cccc(F)c4)ccc3c21` (racemic) [Example 46, 7-[(3-fluorophenyl)sulfonyl]-4,4-dimethyl-3,4,4′,5′-tetrahydro-2H-spiro[1-benzofuro[2,3-c]pyridine-1,3′-furan]], for which the inhibition constant Ki (Table 1, class symbols) was below 500 nM.

With `COc1cc(OC(C)C)cc(S(=O)(=O)c2ccc3c(c2)OC2CN(C4CCC4)CCC32)c1` (stereo not shown) [Example 612], the Ki (Table 1, class symbols) was below 500 nM.

For the compound `O=S(=O)(c1cccc(OC(F)(F)F)c1)c1ccc2oc3c(c2c1)CCNC3` [Example 270, 6-{[3-(trifluoromethoxy)phenyl]sulfo-nyl}-1,2,3,4-tetrahydro[1]benzofuro[2,3-c]pyridine], the Ki (Table 1, class symbols) was below 500 nM.

For the compound `[O-][S+](c1cncc(Cl)c1)c1ccc2c(c1)OC1CNCCC21` (stereo not shown) [Example 391], for the setting “Table 1, class symbols”, the Ki was above 1000 nM.

Take `CC1(C)NCCc2c1oc1cc(S(=O)(=O)c3cccc(Cl)c3)ccc21` [Example 17, 7-[(3-chlorophenyl)sulfonyl]-1,1-dimethyl-1,2,3,4-tetrahydro[1]benzofuro[2,3-c]pyridine]: the Ki (Table 1, class symbols) was below 500 nM.

Regarding `O=S(=O)(c1ccc2oc3c(c2c1)CCNC3)C1CCCCC1` [Example 280], the Ki (Table 1, class symbols) was above 1000 nM.

Regarding `CC(=O)N1CCC2(CC1)NCCc1c2oc2cc(S(=O)(=O)c3cccc(F)c3)ccc12` [Example 41, 1-{7-[(3-fluorophenyl)sulfonyl]-3,4-dihydro-1′H,2H-spiro[1-benzofuro[2,3-c]pyridine-1,4′-piperidin]-1′-yl}ethanone], the Ki (Table 1, class symbols) was below 500 nM.
